Reference: patent US20230416802A1, “SPECIFIC SUBSTRATES AND PRODUCTS OF HSD17B13 AS MARKERS OF LIVER DISEASE AND BIOMARKERS FOR LIVER DISEASE TREATMENT” (INIPHARM, INC., priority 2020, published 2023)

The molecules below were run against T1, HSD17B13 enzyme (Homo sapiens, UniProt Q7Z5P4) (assay: HSD17B13 activity assay using NADH fluorescence). Conditions: substrate at 3.3 μM; activity relative to positive control LTB3.
T1 construct: His; made in house; host or cells: E. coli
T1 sequence (Q7Z5P4 20-300): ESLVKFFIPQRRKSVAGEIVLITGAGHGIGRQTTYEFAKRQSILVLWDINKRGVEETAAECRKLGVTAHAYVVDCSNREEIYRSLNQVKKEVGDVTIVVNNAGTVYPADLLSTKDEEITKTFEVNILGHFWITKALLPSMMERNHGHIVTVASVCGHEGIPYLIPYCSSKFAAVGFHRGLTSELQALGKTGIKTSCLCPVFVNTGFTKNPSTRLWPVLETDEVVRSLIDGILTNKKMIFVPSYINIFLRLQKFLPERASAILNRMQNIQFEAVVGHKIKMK
Format: biochemical
Procedure: A fluorescence based HSD17B13 activity assay was used to monitor the fluorescence of NADH, which is generated from NAD+ during the dehydrogenation of the substrate LTB3 or other substrates. Reactions were performed in a 384-well plates (Greiner; #655076) in a 20 μl reaction volume containing the following reagents (final concentrations): 3 mM NAD^+ (Sigma; #N0623); 125 nM HSD17B13 enzyme (in-house E. coli expressed His-tagged, purified, soluble protein); 1 M potassium phosphate buffer, pH 7.4; 1% DMSO; and a range of substrate concentrations ([…]). Reactions proceeded for […] at 26.5° C. Generation of NADH was measured as the fluorescence signal (Excitation at 340 nm and Emission at 445 nm) at 3 hours minus the baseline fluorescence at t=0. Fluorescence signals in the absence of added substrate (negative control values), were subtracted from all values so that the results reflected substrate-dependent production of NADH. NADH standards were included to allow the conversion of relative fluorescence units into rates of enzyme activity. Ten concentrations of substrate were tested (in the range of 30 mM-2.5 nM), and two independent assessments were performed at each concentration. Activity was compared to the positive control, LTB3, at a concentration of […]. Results are reported as the ratio: [Activity of compound at 30 mM]/[Activity of LTB3 at […]].

Row | Relative oxidation (%) at 3.3 μM | SMILES
1 | 35 (AT 3.3 μM) % | CCCCCCCCCCCC(=O)SCCNC(=O)CCNC(=O)[C@H](O)C(C)(C)COP(=O)(O)OP(=O)(O)OC[C@H]1O[C@@H](n2cnc3c(N)ncnc32)[C@H](O)[C@@H]1OP(=O)(O)O [Lauryl coenzyme A, S-[2-[3-[[(2R)-4-[[[(2R,3S,4R,5R)-5-(6-aminopurin-9-yl)-4-hydroxy-3-phosphonooxyoxolan-2-yl]methoxy-hydroxyphosphoryl]oxy-hydroxyphosphoryl]oxy-2-hydroxy-3,3-dimethylbutanoyl]amino]propanoylamino]ethyl] dodecanethioate]

Same assay, conditions: substrate at 10 μM; activity relative to positive control LTB3

Row | Relative oxidation (%) at 10 μM | SMILES
2 | 29 (at 10 μM) % | CC(C(=O)O)C(=O)SCCNC(=O)CCNC(=O)[C@H](O)C(C)(C)COP(=O)(O)OP(=O)(O)OC[C@H]1O[C@@H](n2cnc3c(N)ncnc32)[C@H](O)[C@@H]1OP(=O)(O)O (stereo partly drawn) [Methyl malonyl coenzyme A, (9R)-1-[(2R,3S,4R,5R)-5-(6-Amino-9H-purin-9-yl)-4-hydroxy-3-(phosphonooxy)oxolan-2-yl]-3,5,9-trihydroxy-8,8,20-trimethyl-3,5,10,14,19-pentaoxo-2,4,6-trioxa-18-thia-11,15-diaza-3λ5,5λ5-diphosphahenicosan-21-oic acid]

Same assay, conditions: substrate at 30 μM; activity relative to positive control LTB3; NADH production by purified HSD17B13

Row | SMILES | Relative oxidation at 30 μM (%)
3 | CCCCC/C=C\C[C@@H](O)/C=C/C=C\C/C=C\CCCC(=O)O [12(R) HETE] | 60
4 | CCCCC[C@@H](O)/C=C/C=C\CCCCCCCCCC(=O)O [15 (R) HEDE] | 46
5 | CCCCCCCC[C@@H](O)/C=C/C=C\C=C\[C@@H](O)CCCC(=O)O [Leukotriene B3 (LTB3), 5S,12R-dihydroxy-6Z,8E,10E-eicosatrienoic acid] | 100

More lines, now with the values ahead:

Row | Relative oxidation at 30 μM (%) | SMILES
6 | 22 | CC/C=C\C/C=C\C[C@H](O)\C=C/C=C/C=C/[C@H](O)C/C=C\CCC(=O)O [Maresin 1, 7R,14S-dihydroxy-4Z,8E,10E,12Z,16Z,19Z-docosahexaenoic acid]
7 | 105 | CC/C=C\C[C@H](O)/C=C/C=C\C=C\[C@@H](O)C/C=C\C/C=C\CCC(=O)O [Protectin DX, 10(S),17(S)-dihydroxy-4Z,7Z,11E,13Z,15E,19Z-docosahexaenoic acid]
8 | 135 | CC/C=C\C[C@H](O)/C=C/C=C\C=C\C=C\[C@@H](O)[C@@H](O)C/C=C\CCC(=O)O [Resolvin D1, 7S,8R,17S-trihydroxy-4Z,9E,11E,13Z,15E,19Z-docosahexaenoic acid]
9 | 45 | CC[C@@H](O)/C=C/C=C\C[C@@H](O)/C=C/C=C/C=C\[C@@H](O)CCCC(=O)O [Resolvin E1, 5S,12R,18R-trihydroxy-6Z,8E,10E,14Z,16E-eicosapentaenoic acid]
